How the values were obtained:
Assay type in all cases: in vivo, swine
postpartum sows [1] = experiment: Single timed injection 96 hours post-weaning and single timed insemination without estrus detection in postpartum sows (Example 3); conditions: 50 mcg at 96 hours post-weaning
Procedure: (§1) Approximately 170 postpartum sows were randomly divided into two equal groups comprised of controls and treated. Following weaning, the controls were detected for estrus and bred following the normal standard operating procedures for the farms on which they resided. The treated sows received a 50 mcg dose of deslorelin in SAIB at 96 hours post-weaning and were bred with a single insemination 28+/−2 hours later with no regard to estrus detection. The sows were examined for pregnancy by ultrasound at 21 days and slaughtered around 28 days post breeding. The entire reproductive tract was removed and corpora lutea and embryos were counted.

postpartum sows [2] = experiment: Pregnancy rate after deslorelin treatment in sows, summary of Tables 2-5
Procedure: as §1, with “counted. Postpartum sows were randomly distributed into three different groups comprised of Controls, Treatment 1, and Treatment 2, with the exception of Site 3, which was divided into two groups, Control and Treatment 2. Control sows were detected for estrus following weaning, and bred following the normal standard operating procedures for the farms on which they resided. Treatment 1 sows were detected for estrus following weaning, and received a 50 mcg dose of deslorelin in the morning when standing and were bred by AI 4 hours later and again at 24+/−2 hours later. Treatment 2 sows received a 50 mcg dose of deslorelin in SAIB at 96 or 120 hours post-weaning and were bred with a single insemination 28+/−2 hours later with no regard to estrus detection. […]” for “counted.”

postpartum sows [3] = experiment: Litter size after deslorelin treatment in postpartum sows at three farm sites (Example 4)
Source text: Postpartum sows were randomly distributed into three different groups comprised of Controls, Treatment 1, and Treatment 2, with the exception of Site 3, which was divided into two groups, Control and Treatment 2. Control sows were detected for estrus following weaning, and bred following the normal standard operating procedures for the farms on which they resided. Treatment 1 sows were detected for estrus following weaning, and received a 50 mcg dose of deslorelin in the morning when standing and were bred by AI 4 hours later and again at 24+/−2 hours later. Treatment 2 sows received a 50 mcg dose of deslorelin in SAIB at 96 or 120 hours post-weaning and were bred with a single insemination 28+/−2 hours later with no regard to estrus detection.

mature postpartum sows = experiment: Intravulvar injection at estrus detection in mature postpartum sows, AI breeding (Example 2)
Procedure: Sows were assigned randomly in blocks of two to either control or to be injected intravulvar with 50 mcg of deslorelin in SAIB at the time of estrus detection for sows first detected in estrus in the a.m. and 12 hours later for those first detected in estrus in the p.m. Treated animals were bred AI upon detected estrus and again 24 hours later if still in estrus. Controls received a saline injection on first detected estrus behavior estrus detection and were bred according to the farm's normal procedures.

[4] = slaughtered around 28 days post breeding
[5] = Site 1, Treatment 1: 50 mcg when standing in estrus, AI 4 hours later and again at 24+/-2 hours
[6] = Site 1, Treatment 2: 50 mcg in SAIB at 96 or 120 hours post-weaning, single insemination 28+/-2 hours later, no estrus detection
[7] = Site 2, Treatment 1: 50 mcg when standing in estrus, AI 4 hours later and again at 24+/-2 hours
[8] = Site 2, Treatment 2: 50 mcg in SAIB at 96 or 120 hours post-weaning, single insemination 28+/-2 hours later, no estrus detection
[9] = Site 3, Treatment 2: 50 mcg in SAIB at 96 or 120 hours post-weaning, single insemination 28+/-2 hours later, no estrus detection
[10] = 50 μg intravulvar at first estrus detection, AI, AI again if in estrus next day

CCNC(=O)[C@@H]1CCCN1C(=O)[C@H](CCCN=C(N)N)NC(=O)[C@H](CC(C)C)NC(=O)[C@@H](Cc1c[nH]c2ccccc12)NC(=O)[C@H](Cc1ccc(O)cc1)NC(=O)[C@H](CO)NC(=O)[C@H](Cc1c[nH]c2ccccc12)NC(=O)[C@H](Cc1cnc[nH]1)NC(=O)[C@@H]1CCC(=O)N1 [Deslorelin, deslorelin]
Pregnancy Rate (postpartum sows [1]; single insemination 28+/-2 hours later, no estrus detection): 71%
Sows Pregnant (postpartum sows [1]; single insemination 28+/-2 hours later, 84 sows in group): 60
Embryo Survival (postpartum sows [1]; [4]): 64%
Live Embryos (postpartum sows [1]; [4]): 13.4
pregnancy rates (in words) (postpartum sows [2]; Table 6): normal pregnancy rates
Number Pregnant (postpartum sows [2]; Treatment 2 (timed injection, single timed insemination), 250 sows in group, data of Tables 2-5 summarized): 177
% Pregnant (postpartum sows [2]; Treatment 2 (timed injection, single timed insemination), data of Tables 2-5 summarized): 70.80%
Avg. Total Live Pigs (postpartum sows [3]; [5]): 11.03
Avg. Total Pigs Born (postpartum sows [3]; [5]): 12.10
Avg. Total Live Pigs (postpartum sows [3]; [6]): 11.24
Avg. Total Pigs Born (postpartum sows [3]; [6]): 12.37
Avg. Total Live Pigs (postpartum sows [3]; [7]): 10.25
Avg. Total Pigs Born (postpartum sows [3]; [7]): 11.21
Avg. Total Live Pigs (postpartum sows [3]; [8]): 10.02
Avg. Total Pigs Born (postpartum sows [3]; [8]): 10.88
Avg. Total Live Pigs (postpartum sows [3]; [9]): 10.27
Avg. Total Pigs Born (postpartum sows [3]; [9]): 11.09
litter sizes (in words) (postpartum sows [3]; Tables 3-5, regardless of estrus detection): normal litter sizes
Length of Estrus (mature postpartum sows; [10]): 40.81 (n = 69) Hrs.
Pregnancy Rate (mature postpartum sows; [10]): 91% (n = 75)
pregnancy rates, Control versus Treated groups (in words) (mature postpartum sows; 50 mcg intravulvar at estrus detection): no significant difference
